The source of these data is paper PMC9476334 (Chemico-Biological Interactions, 2022).

Molecules are shown by their SMILES.

The target of the assay is SARS-CoV-2 spike S1 RBD / ACE2 interaction (S-RBD protein binding to ACE2) (Severe acute respiratory syndrome coronavirus 2, UniProt P0DTC2). Briefly: biochemical.

As to `N=C(N)c1ccc(/N=N/Nc2ccc(C(=N)N)cc2)cc1` [DIZE], the IC50 (commonly the concentration that gives 50% inhibition) is 20.6 µM.
